{
  "source": "patent US12435310B2",
  "about": "“Expansion culture method for human-derived natural killer cells by using HDAC inhibitor” (KOREA UNIVERSITY RESEARCH AND BUSINESS FOUNDATION, priority 2018, dated 2025)",
  "key": {"NK cells [1]": {"tested_on": "NK cells", "conditions": "cited from earlier work"}, "NK cells [2]": {"tested_on": "NK cells", "conditions": "Ogbomo et al., FEBS Letters 2007; cited from earlier work"}, "natural killer cells [3]": {"tested_on": "natural killer cells", "assay": "Cell counting during ex vivo expansion culture of natural killer cells (hematocytometer)", "format": "cell-based, Human", "description": "Human blood was collected, and then centrifuged using Ficoll (Ficoll-Paque™ PLUS, GE Healthcare) at 2500 rpm for 30 minutes, and peripheral blood mononuclear cells were isolated from the buffy coat. Thereafter, the isolated cells were co-cultured with the Jurkat cell line (Korea Cell Line Bank) and EBV-LCL cell line (Korea Cell Line Bank) (each cell line was irradiated with 100 Gy) at a peripheral blood mononuclear cell:Jurkat cell:EBV-LCL cell ratio of 1:0.5:0.5 in hRPMI medium (RPMI1640 medium (Corning) containing 10% FBS and 1% penicillin/streptomycin) in the presence of 500 U/ml of IL-2. During culture, the medium was replaced with hRPMI medium containing 500 U/ml of IL-2 once every 3 to 4 days.\nIn order to confirm the effect of an HDAC inhibitor on natural killer cells, the natural killer cells cultured for […] under the above-described conditions were treated with 125 nM of an HDAC inhibitor (SAHA, Sigma Aldrich, USA) once every 4 days, and the number of the cells was counted (FIG. 1A). At this time, the number of the cells was counted using a hematocytometer once every 4 days while the cells were further cultured for about 12 days, and during culture, the medium was replaced with hRPMI medium containing 500 U/ml of IL-2."}, "natural killer cells [4]": {"tested_on": "natural killer cells", "assay": "Apoptosis by annexin V/7AAD staining, flow cytometry", "format": "cell-based, Human", "conditions": "NK cells expanded 10 days, treated, further cultured 8 days (FIG. 3)", "description": "(§1) In the same manner as in Example 1, natural killer cells expanded ex vivo for 10 days were treated with an HDAC inhibitor and further cultured for 8 days. After harvesting the cells, 5×10^5 cells were obtained and apoptosis and proliferation thereof were measured using a flow cytometer.\n(§2) To measure apoptosis, cells were harvested and stained with annexin V (2.5 μl) and 7AAD (2 μl) for 15 minutes, and then the proportion of the cells stained with annexin V/7AAD was analyzed using FACS Cantoll (BD). To measure cell proliferation, PerCP-labeled CD3 mAb (Biolgend Cat No. 344814 clone SK7) and APC-labeled CD56 mAb (Biolegend Cat No. 362504 clone 5.1H11) were added to the cells and allowed to react at 4° C. for 20 minutes. For intracellular FACS, the cells were washed with FACS buffer, and analyzed by staining Ki67 in the cell nucleus with the eBioscience Foxp3/transcription factor staining buffer set (eBioscience Cat No. 00-5523-00)."}, "natural killer cells [5]": {"tested_on": "natural killer cells", "assay": "Cell proliferation by Ki67 staining, flow cytometry", "format": "cell-based, Human", "conditions": "NK cells expanded 10 days, treated, further cultured 8 days (FIG. 3)", "description": "as §1, §2"}, "[6]": {"tested_on": "K562 and A375 target cancer cells", "assay": "Cancer cell killing ability of natural killer cells, chromium release", "format": "cell-based, Human", "conditions": "K562 and A375 targets, ratio 1:1, 4 hours, versus untreated control (FIG. 4A)", "description": "In order to examine whether the cancer cell killing ability of the natural killer cells expanded ex vivo by the method of Example 1 changes, K562 (Korea Cell Line Bank) and A375 (Korea Cell Line Bank) cells were prepared as target cancer cells, labeled with chromium for 1 hour, mixed with natural killer cells at a ratio of 1:1, and then co-cultured 37° C. After 4 hours, the supernatant was taken and the isotope value thereof was analyzed using a gamma counter."}, "natural killer cells [7]": {"tested_on": "natural killer cells", "assay": "CD107a expression and IFN-g secretion of natural killer cells, flow cytometry", "format": "cell-based, Human", "description": "2.5 μl of FITC-labeled anti-CD107a mAb was added to the cells, and Golgi stop (BD Pharmingen) was added, followed by culture at 37° C. for 5 hours. After completion of culture, PerCPp-labeled CD3 mAb (Biolgend Cat No. 344814 clone SK7) and APC-labeled CD56mAb (Biolegend Cat No. 362504 clone 5.1H11) were added to the cells and allowed to react at 4° C. for 20 minutes. For intracellular FACS, the cells were washed with FACS buffer, fixed, permeabilized using a BD Cytoperm/Cytofix kit (BD Pharmingen, San Diego, CA), stained with PE-labeled IFN-g mAb, and then analyzed by flow cytometry. As a positive control, natural killer cells treated with PMA/ionomycin were used."}},
  "note": "Read-outs that look alike come from different tables or passages of the source.",
  "data": [
    {"compound": "O=C(CCCCCCC(=O)Nc1ccccc1)NO", "note": "[vorinostat]", "values": [
      {"measurement": "cancer cell killing ability of the NK cells", "setting": "NK cells [1]; activated NK cells, Wang et al., Biol Blood Marrow Transplant 2012", "result": "no change"}
    ]},
    {"compound": "CCCC(CCC)C(=O)O", "note": "[valproic acid]", "values": [
      {"measurement": "proliferation of the NK cells", "setting": "NK cells [2]", "result": "decreases"},
      {"measurement": "cancer cell killing ability of the NK cells", "setting": "NK cells [1]; Ogbomo et al., FEBS Letters 2007", "result": "decreases"}
    ]},
    {"compound": "O=C(CCCCCCC(=O)Nc1ccccc1)NO", "note": "[SAHA]", "values": [
      {"measurement": "number of cells compared with control group not treated with the HDAC inhibitor", "setting": "natural killer cells [3]; NK cells cultured 6 days, then 125 nM once every 4 days, further culture about 12 days (FIG. 1B)", "result": "more than double"},
      {"measurement": "number of the natural killer cells compared to conventional culture method", "setting": "natural killer cells [3]; PBMC co-cultured with Jurkat and EBV-LCL cells for 10 days, then treated", "result": "increased"},
      {"measurement": "proliferation of the NK cells by concentration", "setting": "natural killer cells [3]; concentration of 62.5 nM (FIG. 2B)", "result": "the highest"},
      {"measurement": "number of cells", "setting": "natural killer cells [3]; treated at an initial stage without being cultured", "result": "no increase"},
      {"measurement": "number of cells by timing of treatment", "setting": "natural killer cells [3]; treated from co-culture day 6 (FIG. 2A)", "result": "the highest"},
      {"measurement": "proliferation of the NK cells (growth curve)", "setting": "natural killer cells [3]; treated on day 0 of culture compared to treated on day 10 of culture (FIG. 1C)", "result": "decreased"},
      {"measurement": "apoptosis of the natural killer cells (annexin V/7AAD)", "setting": "natural killer cells [4]", "result": "inhibited"},
      {"measurement": "proliferation of the natural killer cells (Ki67)", "setting": "natural killer cells [5]", "result": "did not change"},
      {"measurement": "proliferation of the natural killer cells (Ki67)", "setting": "natural killer cells [5]; listed as HDAC inhibitor", "result": "no significant change"},
      {"measurement": "cancer cell killing ability of the natural killer cells", "setting": "[6]", "result": "did not change"},
      {"measurement": "interferon-gamma secretion of the cells", "setting": "natural killer cells [7]; co-cultured 10 days, then treated", "result": "did not change"},
      {"measurement": "function of the natural killer cells: expression of CD107a and secretion of IFN-g", "setting": "natural killer cells [7]; treated or not treated with the HDAC inhibitor (FIG. 4B)", "result": "no change"}
    ]}
  ]
}
